Results on eleven substances are retold here after US6358927B1, “Peptide fragments and analogs derived from PBAN 1-33 NH2 for controlling moths” (priority 1994, dated 2002).

Common to all, as to assay type: in vivo
Assay [1] relates to Heliothis peltigera. The experiment in a line: Pheromonotropic bioassay: peptide injected into females, pheromone content (Z11-16:Ald) of the gland measured. As to conditions: for effect of protease inhibitors on the biological activity of the peptide (in words): mixture of carboxypeptidase inhibitors (aprotinin and PMSF) and other protease inhibitors (TLCK, bacitracin) (FIG. 3); for biological activity (in words): 10 pmol in the presence of protease inhibitors for 2 hours. As to the method:
Structure activity studies were performed by an examination of the pheromonotropic activity of synthetic Hez-PAN (PBAN 1-33 NH2) and ten shorter fragments derived from its N- and C-terminal regions. Activity was tested on Heliothis peltigera using a bioassay as described by Gazit et al; (Insect Biochem., 20, 853-858, 1990). These structures are as follows:
The role of the N-terminus on the onset of the biological activity was examined using a series of peptides lacking 8, 12, 16, and 18 amino acids from their N-terminus [PBAN (9-33) NH2, PBAN (13-33) NH2, PBAN (17-33) NH2 and PBAN (19-33) NH2], respectively. […] Pheromone content was examined two hours post-injection. […] The N-terminal region may provide stability against proteolytic degradation or alternatively may play a secondary structural role.
Pheromonotropic activity was determined by injecting the peptides, dissolved in buffer phosphate to 3.5-4.5 days old females during daylight for two hours. Pheromone content is represented by the amount of the major pheromone component Z11-16:Ald.

Assay [2] deals with Heliothis peltigera. Put plainly: Inhibition of pheromonotropic activity evoked by PBAN (1-33) NH2 (co-injection of free acid fragments or antiserum). As to conditions: for inhibitory activity on pheromonotropic activity evoked by PBAN (1-33) NH2 (in words): injected together with 1 pmol PBAN (1-33) NH2. As to the method: Structure activity studies were performed by an examination of the pheromonotropic activity of synthetic Hez-PAN (PBAN 1-33 NH2) and ten shorter fragments derived from its N- and C-terminal regions. Activity was tested on Heliothis peltigera using a bioassay as described by Gazit et al; (Insect Biochem., 20, 853-858, 1990).

The test system of assay [3] is Spodoptera littoralis larvae. Put plainly: Melanotropic bioassay: cuticular melanization in ligated larvae. As to conditions: for Non pigmented area / Pigmented area: 10 pmol injected, ligated larvae, computerized optical density scanner; for cuticular melanization (in words): injection into ligated larvae, compared with ligation or buffer injection. As to the method:
Structure activity studies were also performed with respect to the melanotropic activity of synthetic Hez-PBAN. All the fragments that were tested for their pheromonotropic activity were also tested for their melanotropic activity. Studies were performed on Spodoptera littoralis larvae using a quantitative bioassay (Altstein et al., Peptides, submitted, 1994) which examines the ability of PBAN fragments to induce cuticular melanization in ligated larvae. Ligated larvae produce smaller amounts of melanin compared to untreated larvae (Table 4) as a result of a reduction in their endogenous PBAN. Under the tested conditions ligation caused a significant, but not complete, reduction in cuticular melanization. This incomplete reduction may result from the presence of PBAN in ganglia which were not affected by the ligation or from the presence of another hormone or neuropeptide that affects this process.
Pigmented and non-pigmented areas were determined by a computerized optical density scanner as described by Altstein et al., (Peptides, submitted, 1994).

For assay [4], the system named is Heliothis peltigera. The experiment in a line: Pheromonotropic bioassay: peptide injected into females, pheromone content (Z11-16:Ald) of the gland measured. The settings on record: shortly after injection (15-30 min) (FIG. 5).
Where [5] appears, read: Dose of 1 pmol, injected in phosphate buffer to 3.5-4.5 days old females during daylight for two hours.
Where [6] appears, read: Dose of 10 pmol, injected in phosphate buffer to 3.5-4.5 days old females during daylight for two hours.
[7] abbreviates: C-terminally free acid peptides, 10 pmol, in the presence of protease inhibitors for 2 hours.
[8] abbreviates: free acid fragment at 10 pmol injected together with PBAN (1-33) NH2 at 1 pmol.
The mark [9] stands for this setting: 1 pmol, pheromone content two hours post-injection.
The mark [10] stands for this setting: concentrations ranging from 1-100 pmol, tested 2 hours post injection (FIG. 4).

For the substance “H-Gln-Asp-Pro-Glu^20-Gln-Ile-Asp-Ser-Arg-Thr-Lys-Tyr-Phe-Ser^30-Pro-Arg-Leu^33-NH2 [PBAN (17-33) NH2]”, the “Pheromone content Z11-16:Ald ng/gland ± SE” value in assay [1] (setting [5]) was 24.1 ± 5.7 c ng/gland; in assay [1] (setting [6]) it was 196.9 ± 40.7 a′ ng/gland.

Consider “H-Glu-Met-Tyr-Arg-Gln-Asp-Pro-Glu^20-Gln-Ile-Asp-Ser-Arg-Thr-Lys-Tyr-Phe-Ser^30-Pro-Arg-Leu^33-NH2 [PBAN (13-33) NH2]”, for which the figures for the “Pheromone content Z11-16:Ald ng/gland ± SE” value in assay [1] (setting [5]) and in assay [1] (setting [6]) were 4.1 ± 3.0 d ng/gland and 180.2 ± 47.3 a′ ng/gland, respectively.

With “H-Leu^1-Ser-Asp-Asp-Met-Pro-Ala-Thr-Pro-Ala^10-Asp-Gln-Glu-Met-Tyr-Arg-Gln-Asp-Pro-Glu^20-Gln-Ile-Asp-Ser-Arg-Thr-Lys-Tyr-Phe-Ser^30-Pro-Arg-Leu^33-COOH [PBAN (1-33) COOH]”, the “pheromonotropic activity (in words)” value in assay [1] (10 pmol) is “completely inactive”. Also, the “Pheromone content Z11-16:Ald ng/gland ± SE” value in assay [1] (setting [7]) was 1.4 ± 0.76 ng/gland. Further, in assay [1], the “effect of protease inhibitors on the biological activity of the peptide (in words)” value is listed as “did not enhance”. Also, in assay [2] (setting [8]), the “Inhibition (% of cont)” value is 0% and the “Pheromone content Z11-16:Ald ng/gland ± SE” value stood at 170.2 ± 24.2 ng/gland. Besides, the “inhibitory activity on pheromonotropic activity evoked by PBAN (1-33) NH2 (in words)” value (from here on “inhibitory activity”) in assay [2] is recorded as “did not show any inhibitory activity”.

For “H-Leu^1-Ser-Asp-Asp-Met-Pro-Ala-Thr-Pro-Ala^10-Asp-Gln-Glu-Met-Tyr-Arg-Gln-Asp-Pro-Glu^20-Gln-Ile-Asp-Ser-Arg-Thr-Lys-Tyr-Phe-Ser^30-Pro-Arg-Leu^33-NH2 [PBAN (1-33) NH2, reference compound]”, in assay [3], the Non pigmented area is 4%, the Pigmented area came out at 96% and the “cuticular melanization (in words)” value is “significant increase”. Moreover, the “Pheromone content Z11-16:Ald ng/gland ± SE” value in assay [1] (setting [5]) is recorded as 200.7 ± 40.7 a ng/gland. Besides, the “Pheromone content Z11-16:Ald ng/gland ± SE” value in assay [1] (setting [6]) is 225.2 ± 51.4 a′ ng/gland. In addition, the “effect of protease inhibitors on the biological activity of the peptide (in words)” value in assay [1] was “significant stimulation in its activity”. In addition, the “Pheromone content Z11-16:Ald ng/gland ± SE” value in assay [2] (PBAN (1-33) NH2 alone at 1 pmol (control of Table 3)) is given as 165.0 ± 21.0 ng/gland.

In the case of “H-Pro-Ala^10-Asp-Gln-Glu-Met-Tyr-Arg-Gln-Asp-Pro-Glu^20-Gln-Ile-Asp-Ser-Arg-Thr-Lys-Tyr-Phe-Ser^30-Pro-Arg-Leu^23-COOH (H-PADQEMYRQDPEQIDSRTKYFSPRL-OH) [PBAN (9-33) COOH]”, the “biological activity (in words)” value in assay [1] is “lack any biological activity”. For the same substance, in assay [1] (setting [7]), the “Pheromone content Z11-16:Ald ng/gland ± SE” value is listed as under 1 ng/gland. Also, in assay [2] (setting [8]), the “Inhibition (% of cont)” value worked out at 7% and the “Pheromone content Z11-16:Ald ng/gland ± SE” value came to 154.7 ± 22.2 ng/gland. Further, the “inhibitory activity” value in assay [2] is “did not show any inhibitory activity”.

On to “H-Pro-Ala^10-Asp-Gln-Glu-Met-Tyr-Arg-Gln-Asp-Pro-Glu^20-Gln-Ile-Asp-Ser-Arg-Thr-Lys-Tyr-Phe-Ser^30-Pro-Arg-Leu^33-NH2 [PBAN (9-33) NH2]”, for which the “pheromonotropic activity (in words)” value in assay [1] (setting [9]) was “active as PBAN (1-33) NH2”. Besides, the “Pheromone content Z11-16:Ald ng/gland ± SE” value in assay [1] (setting [5]) turned out to be 143.7 ± 29.6 a ng/gland; in assay [1] (setting [6]), 168.0 ± 9.2 a′ ng/gland.

As to “H-Pro-Ala^10-Asp-Gln-Glu-Met-Tyr-Arg-Gln-Asp^18-COOH (H-PADQEMYRQD-OH) [PBAN (9-18) COOH]”, in assay [3], the Non pigmented area worked out at 25%, the Pigmented area is reported as 75% and the “cuticular melanization (in words)” value is listed as “significant decrease”. The “biological activity (in words)” value in assay [1] is “lack any biological activity”. In assay [1] (setting [7]), the “Pheromone content Z11-16:Ald ng/gland ± SE” value is under 1 ng/gland. Moreover, the “inhibition of the pheromonotropic activity” value in assay [2] (100 pmol of fragment together with 0.5 pmol PBAN (1-33) NH2 (FIG. 6)) is listed as 40%. Moreover, in assay [2] (setting [8]), the “Inhibition (% of cont)” value is 35% and the “Pheromone content Z11-16:Ald ng/gland ± SE” value came out at 108.1 ± 18.0 ng/gland.

With “H-Pro-Glu^20-Gln-Ile-Asp-Ser-Arg-Thr-Lys-Tyr-Phe-Ser^30-Pro-Arg-Leu^33-COOH [PBAN (19-33) COOH]”, the “biological activity (in words)” value in assay [1] is recorded as “lack any biological activity”. In assay [1] (setting [7]), the “Pheromone content Z11-16:Ald ng/gland ± SE” value is under 1 ng/gland. In assay [2] (setting [8]), the “Inhibition (% of cont)” value came out at 27% and the “Pheromone content Z11-16:Ald ng/gland ± SE” value is 120.4 ± 29.2 ng/gland. In addition, the “inhibitory activity” value in assay [2] is “did not show any inhibitory activity”.

For “H-Pro-Glu^20-Gln-Ile-Asp-Ser-Arg-Thr-Lys-Tyr-Phe-Ser^30-Pro-Arg-Leu^33-NH2 [PBAN (19-33) NH2]”, the “pheromonotropic activity (in words)” value in assay [1] (setting [9]) was “low activity”. For the same substance, the “Pheromone content Z11-16:Ald ng/gland ± SE” value is given as 52.7 ± 21.0 b ng/gland in assay [1] (setting [5]) and 133.8 ± 15.7 b′ ng/gland in assay [1] (setting [6]).

As for “H-Thr-Lys-Tyr-Phe-Ser^30-Pro-Arg-Leu^33-NH2 (H-TKYFSPRL-NH2) [PBAN (26-33) NH2]”, the figures for the “Pheromone content Z11-16:Ald ng/gland ± SE” value in assay [1] (setting [5]) and in assay [1] (setting [6]) were 8.9 ± 3.5 d ng/gland and 12.2 ± 3.1 c′ ng/gland, respectively. Besides, in assay [1] (setting [10]), the “pheromonotropic activity (in words)” value was “active only at high doses (100 pmol)”.

On to “H-Tyr-Phe-Ser^30-Pro-Arg-Leu^33-NH2 (H-YFSPRL-NH2) [PBAN (28-33) NH2]”, for which the “pheromonotropic activity (in words)” value is recorded as “does not differ significantly from that of the full length PBAN (1-33) NH2” in assay [4] and “active only at high doses (100 pmol)” in assay [1] (setting [10]). Moreover, the “Pheromone content Z11-16:Ald ng/gland ± SE” value amounted to 5.6 ± 1.7 d ng/gland in assay [1] (setting [5]) and 12.7 ± 4.9 c′ ng/gland in assay [1] (setting [6]).
